Structures can show the parent of a compound that is named as a salt.
How the values were obtained:
Assay type in all cases: physicochemical
[1] = Hygroscopicity (weight increase after 1 week at 25° C. and 60% or 90% relative humidity); conditions: weight increase relative to the initial weight
Method: Each of the salts (dibesylate salt, dihydrochloride salt, dioxalate salt, sodium salt, potassium salt) prepared in the above examples was left to stand at 25° C. and 60% or 90% relative humidity for 1 week, and a hygroscopicity thereof was measured. Here, the hygroscopicity was measured as a percentage of weight increase, which was measured after the hygroscopicity test, relative to the initial weight.

[2] = Chemical purity after standing at 80° C. (HPLC; lactam-based related substances and main compound); conditions: for Increase in related substances: After 20 hours at 80° C., peak area of lactam-based related substances relative to main compound (HPLC); for Residual amount of main compound: After 21 days at 80° C., HPLC
Method: (§1) Each of the salts (dibesylate salt, dihydrochloride salt, sodium salt, potassium salt) prepared in the above examples was left to stand at 80° C. for 20 hours, and then an amount of change in related substances was measured. In addition, each of the salts was left to stand at 80° C. for 21 days, and then a residual amount of the main compound (compound of Formula 1) was measured. For measurement of the related substances and the main compound, samples were taken before and after exposure to 80° C., dissolved in a diluted solution at a concentration of 1 mg/mL, and then subjected to high-performance liquid chromatography (HPLC). From the resulting data, an increase in related substances was calculated by measuring a peak area of lactam-based related substances relative to a peak area of the main compound. In addition, for comparison, the same test was also carried out for the free base of the compound of Formula 1.

[3] = Water solubility (distilled water at 25° C., HPLC); conditions: supersaturated solution
Method: The water solubility was obtained as follows. Each of the free base and the dibesylate salt was dissolved in distilled water at 25° C. to make it supersaturated. Then, the solution was taken and diluted 20-fold with a diluent for dissolution. Then, the resultant was subjected to high-performance liquid chromatography (HPLC). In the resulting data, the dissolved amount was calculated from a peak area of the main compound.

[4] = Physical state of the product as obtained (foam, moistening); conditions: observation in words
Excerpt: First, the compound of Formula 1 was not solidified, which posed great difficulty in controlling a residual solvent.

[5] = Chemical purity after storage for 3 months at 40° C. and 75% relative humidity (HPLC)
Method: as §1
In addition, in a similar manner, the dibesylate salt prepared in the above example was stored for 3 months (at 40° C. and 75% relative humidity), and amounts of change in lactam-based related substances and main compound were measured.

[6] = Stability of drug product (oral capsule, 50° C. and 80% humidity for 3 weeks, HPLC); conditions: 50° C. and 80% relative humidity for 3 weeks
Method: Using each of the salts (dibesylate salt, dihydrochloride salt, sodium salt, potassium salt) prepared in the above examples, a drug product was prepared in the form of an oral capsule with the excipient composition as shown in Table 6 below. The drug product was left to stand at 50° C. and 80% humidity for 3 weeks, and then an amount of change in related substances was measured. For measurement of related substances, the contents were separated from the capsule, and then all of them were placed in a diluted solution so that the active ingredient was brought to a concentration of 1 mg/mL. Shaking was performed for 5 minutes. The supernatant was taken and filtered. The filtrate was taken and subjected to high-performance liquid chromatography (HPLC).
From the resulting data, percentages of a peak area of the main compound (active ingredient) and a peak area of the lactam-based related substances were measured. In addition, for comparison, the same test was also carried out for the free base of the compound of Formula 1.

[7] = Evaluation of stability of crystal form (PXRD after drying in vacuo at 50° C.); conditions: after being dried in vacuo at 50° C.
Method: The solid product (crystalline form A) obtained in Example 1 was subjected to powder X-ray diffraction (PXRD). The results are shown in FIG. 1 and Table 8 below. • Instrument: Maker Bruker AXS, D8 FOCUS • Conditions: 40 kV, 30 mA, 2θ/θ scan range of 3° to 50°
The solid product (crystalline form A) obtained in Example 1 was dried in vacuo at 50° C., and then subjected to powder X-ray diffraction as described above. The results are illustrated in FIG. 4.
On the other hand, using 1,4-dioxane as a solvent, a solid product (crystalline form B) was obtained in a similar manner as in Example 1, and subjected to powder X-ray diffraction as described above.

[8] = After 3 months at 40° C. and 75% relative humidity

Hygroscopicity ([1]; 60% RH) | Hygroscopicity ([1]; 90% RH) | Increase in related substances [2] | Residual amount of main compound [2] | SMILES | other results
8.7 wt % | 35 wt % | 0.6% | 77.0% | O=C(O)CCCN[C@@H](Cn1c(=O)c2c(n(Cc3c(F)cccc3C(F)(F)F)c1=O)COC21CCN(Cc2ccc(C(F)(F)F)o2)CC1)c1ccccc1 [Sodium salt] | 
 |  | 79.0% | 1.4% | O=C(O)CCCN[C@@H](Cn1c(=O)c2c(n(Cc3c(F)cccc3C(F)(F)F)c1=O)COC21CCN(Cc2ccc(C(F)(F)F)o2)CC1)c1ccccc1 [Free base, (R)-4-((2-(1-(2-fluoro-6-(trifluoromethyl)benzyl)-2,4-dioxo-1′-((5-(trifluoromethyl)furan-2-yl)methyl)-1H-spiro[furo[3,4-d]pyrimidine-5,4′-piperidine]-3 (2H,4H,7H)-yl)-1-phenylethyl)amino)butanoic acid] | Increase in related substances ([2]; listed as free base): about 79%; Water solubility (25° C.) [3]: 0.19 mg/mL; Water solubility (25° C.) ([3]; listed as free base): low water solubility; Moistening of the product obtained in the form of a foam [4]: easily moistened and turned into a sticky oil form
9.2 wt % | 38 wt % | 0.4% | 72.6% | O=C(O)CCCN[C@@H](Cn1c(=O)c2c(n(Cc3c(F)cccc3C(F)(F)F)c1=O)COC21CCN(Cc2ccc(C(F)(F)F)o2)CC1)c1ccccc1 [Potassium salt] | 

The remaining lines, values behind:

SMILES | Hygroscopicity ([1]; 60% RH) | Hygroscopicity ([1]; 90% RH) | Increase in related substances [2] | Residual amount of main compound [2] | other results
O=C(O)CCCN[C@@H](Cn1c(=O)c2c(n(Cc3c(F)cccc3C(F)(F)F)c1=O)COC21CCN(Cc2ccc(C(F)(F)F)o2)CC1)c1ccccc1 [Dihydrochloride salt] | 2.1 wt % | 16 wt % | 0.9% | 69.4% | 
O=C(O)CCCN[C@@H](Cn1c(=O)c2c(n(Cc3c(F)cccc3C(F)(F)F)c1=O)COC21CCN(Cc2ccc(C(F)(F)F)o2)CC1)c1ccccc1 [Dibesylate salt] | 0.06 wt % | 0.9 wt % | 0.0% | 99.6% | Hygroscopicity ([1]; 90% RH, listed as dibesylate salt): very low hygroscopicity; Increase in related substances ([2]; listed as dibesylate salt): did not generate any related substances; Chemical purity: Related substances [5, 8]: 0.03%; Chemical purity: main compound (Dibesylate salt) [5, 8]: 99.6%; Chemical purity: Related substances ([5]; Initial): 0.02%; Chemical purity: main compound (Dibesylate salt) ([5]; Initial): 99.7%; Water solubility (25° C.) [3]: 25.77 mg/mL; Water solubility (25° C.) ([3]; listed as dibesylate salt): greatly improved water solubility; Stability of drug product (in words) [6]: very good stability; Stability of crystal structure (PXRD) ([7]; listed as crystalline form A): maintained the same crystal structure as its initial one
O=C(O)CCCN[C@@H](Cn1c(=O)c2c(n(Cc3c(F)cccc3C(F)(F)F)c1=O)COC21CCN(Cc2ccc(C(F)(F)F)o2)CC1)c1ccccc1 [Dioxalate salt] | 3.5 wt % | 19 wt % |  |  | 
O=C(O)CCCN[C@@H](Cn1c(=O)c2c(n(Cc3c(F)cccc3C(F)(F)F)c1=O)COC21CCN(Cc2ccc(C(F)(F)F)o2)CC1)c1ccccc1 [diphosphate salt, reference compound] |  |  |  |  | Moistening of the product obtained in the form of a foam [4]: easily moistened and turned into a sticky oil form
O=C(O)CCCN[C@@H](Cn1c(=O)c2c(n(Cc3c(F)cccc3C(F)(F)F)c1=O)COC21CCN(Cc2ccc(C(F)(F)F)o2)CC1)c1ccccc1 [crystalline form B] |  |  |  |  | Stability of crystal structure (PXRD) [7]: did not maintain some of its initial crystal structure

Source: patent US12227513B2, “Salt and crystalline form of furopyrimidine compound and pharmaceutical use thereof” (TIUMBIO CO., LTD., priority 2018, dated 2025)
